Earlier results on 1 substance are cited in patent US20190343121A1, “Cinmethylin Microcapsules with a Shell Made of Tetramethylxylylene Diisocyanate and a Polyamine with at Least Three Amine Groups” (BASF Agro B.V., priority 2016, published 2019).

The conditions of the data set: at 20° C.

“(±)-2-exo-(2-methylbenzyloxy)-1-methyl-4-isopropyl-7-oxabicyclo[2.2.1]heptane [Cinmethylin]”: the solubility in water is 63 µg/mL.
